# Assay results as given in patent publication US20080187911A1, “Methods and compositions for analysis of mitochondrial-related gene expression” (priority 2003, published 2008).
# Assays:
# [1] = tested on: mitochondrial DNA encoded gene expression; assay: Microarray analysis of mitochondrial DNA encoded gene expression in response to 3-nitropropionic acid; format: cell-based; details: 3 NPA treatments at 6, 12 and 26 hours; inhibition of Complex II (succinic dehydrogenase)
# Protocol: FIGS. 5A-5B. Analysis of mitochondrial DNA encoded gene expression. FIG. 5A—response to 3-nitropropionic acid, an inhibitor of Complex II—succinic dehydrogenase. […] FIG. 5B-analysis of mitochondrial DNA encoded gene expression in trypanosome infected heart tissue.
# Analysis of mitochondrial DNA encoded gene expression in response to 3-nitropropionic acid (3NPA), an inhibitor of Complex II—succinic dehydrogenase was performed (FIG. 5A, Table 5). The 3 NPA treatments were at 6, 12 and 26 hours.
# [2] = tested on: mouse mitochondrial genes in AML-12 mouse liver cells; assay: Microarray analysis of the effects of rotenone on expression of mouse mitochondrial genes; format: cell-based; details: AML-12 mouse liver cells in culture
# Description: FIG. 4. The effects of rotenone, an inhibitor of mitochondrial Complex I, on the expression of mouse mitochondrial genes in AML-12 mouse liver cells in culture.
# The effects of rotenone, an inhibitor of mitochondrial Complex I, on the expression of mouse mitochondrial genes in AML-12 mouse liver cells in culture were examined (FIG. 4; Table 4). […] Spots A1-G11 represent mitochondrial related nuclear encoded genes; spots G12-H12 represent the 13 genes encoded by mitochondrial DNA. It should be noted that in subsequent microarray designs (constructions) the mitochondrial DNA encoded genes G12-H12 were removed from the filters and arrayed separately. Thus, the G12-H12 spots were replaced with nuclear encoded genes. […] E4 and E5 represent the […] and 16S mitochondrial ribosomal RNAs.
SMILES,synthesis of mitochondrial encoded mRNAs and ribosomal RNAs [1],"mRNA pool levels of mitochondrial-related genes on the microarray ([2]; genes named: A11 ATP synthase lipid binding proteins, B8 ADP, ATP carrier protein, B9 cytochrome C oxidase chain VIIa, D12 chaperonin 10, E12 pyruvate carboxylase, H7 Complex I: Protein Dehydrogenase chain 3)","production of mRNAs of Complex I proteins (H7, H10) ([2]; inhibition of Complex I, suggested compensatory response)"
O=C(O)CC[N+](=O)[O-] [3-nitropropionic acid],stimulates the synthesis of mitochondrial encoded mRNAs and the 23S and 16S ribosomal RNAs,,
C=C(C)[C@H]1Cc2c(ccc3c2O[C@@H]2COc4cc(OC)c(OC)cc4[C@@H]2C3=O)O1 [rotenone],,up-regulated,"may stimulate the production of mRNAs of Complex I proteins (H7, H10)"
